Data as given in patent publication US9090617B1, “Agonists of Src homology-2 containing protein tyrosine phosphatase-1 and treatment methods using the same” (National Taiwan University, priority 2011, dated 2015).
Entries after “also recorded” stand apart in the source; their conditions may differ. Where two headings read alike, the source gives them in different places.

Tests used:
PLC5 tumors = test: Subcutaneous PLC5 xenograft; assay type: in vivo, mice; conditions: for average tumor size versus control mice at the end of treatment: SC PLC5 tumor-bearing mice
Protocol: All experimental procedures using these mice were done in accordance with protocols approved by the Institutional Laboratory Animal Care and Use Committee of National Taiwan University. Each mouse was inoculated s.c. in the dorsal flank with 1×10^6 PLC5 cells suspended in 0.1 mL of serum-free medium containing 50% Matrigel (BD Biosciences). When tumors reached 100 to 200 mm3, mice received SC-40 tosylate (10 or 20 mg/kg) orally once daily. Tumors were measured weekly using calipers, and their volumes were calculated using the following standard formula: width×length×height×0.52.
(§1) We established an HCC orthotopic model using luc2-expressed PLC5 cells inoculated into liver of nude mice. […] To further correlate the molecular mechanism with the anticancer effect in vivo, p-STAT3 and SHP-1 activity in tumor extract from vehicle- and SC-treated mice was analyzed by immunoblotting. […] The pharmacokinetics of SC-43 was determined (FIG. 25E).

phospho-STAT3 (Tyr705) = test: Phospho-STAT3 (Tyr705) sandwich ELISA; assay type: cell-based; conditions: for p-STAT3 / STAT3 activity (phospho-STAT3 ELISA and luciferase reporter): PLC5 cells
Protocol: A PathScan Phospho-Stat3 (Tyr705) Sandwich ELISA Kit was used for the detection of phospho-STAT3 (Cell Signaling, Danvers, Mass.). Cells were pre-treated with IL-6 1 ng/ml and then exposed with various compounds at 10 μM for 24 h. After incubation with cell lysates, both non-phospho- and phospho-Stat3 proteins are captured by the coated antibody. The expression of phospho-STAT3 was measured at 450 nm absorbance.
The decreased level of P-STAT3 induced by these derivatives was correlated with cell toxicity. In the other words, these derivatives induced cell death in part through inhibition of STAT3.
We also assayed the activation status of p-STAT3 by STAT3 ELISA. […] SC-1 or sorafenib-treated cell extracts were incubated with antibody against phosphorylated STAT3 at Y705. […] To evaluate the transcriptional activity, STAT3-binding region was cloned into Luc reporter. […] The firefly luciferase activity was evaluated and normalized by Renilla luciferase.
p-STAT3 activity: PLC5 cells treated with SC derivatives were collected in RIPA buffer and analyzed in p-STAT3 ELISA kit. The assay protocol follows the manufacturer.

SHP-1 [1] = target: T1, SHP-1 (Homo sapiens, UniProt P29350); test: Phosphatase activity of SHP-1 immunoprecipitated from PLC5 cells, incubated with compound in vitro; assay type: biochemical; parameters: PLC5 protein extract was incubated with anti-SHP-1 antibody in immunoprecipitation buffer overnight; endogenous in cells; host or cells: PLC5 (PLC/PRF/5)
Protocol: PLC5 protein extract was incubated with anti-SHP-1 antibody in immunoprecipitation buffer overnight. Protein G Sepharose 4 Fast flow (GE Healthcare Bio-Science) was added to each sample, followed by incubation for 3 hours at 4° C. with rotation. […] RediPlate 96 EnzChek Tyrosine Phosphatase Assay kit (R-22067) was used for SHP-1 activity assay (Molecular Probes).

[2] = tested on: p-STAT3, cyclin D1, survivin, Mc1-1; test: Western blot of STAT3-related proteins in HCC cells; assay type: cell-based; conditions: HCC cells, 24 h
Protocol: Cells were treated with various compounds at 5 and 10 μM for 24 h. Cell lysates were analyzed by western blot.
HCC cells treated with SC-43 (10 μM for 24 h) were collected with RIPA lysis buffer. Antibodies for immunoblotting such as cyclin D1 was purchased from Santa Cruz Biotechnology. Other antibodies such as survivin, phospho-STAT3 (Tyr705), STAT3, Mc1-1, SOCS1, and SOCS3 were from Cell Signaling.

SHP-1 [3] = target: T1, SHP-1; test: Phosphatase activity of recombinant SHP-1; assay type: biochemical; conditions: 25 ng protein, 30 minutes
Protocol: RediPlate 96 EnzChek Tyrosine Phosphatase Assay kit (R-22067) was used for SHP-1 activity assay (Molecular Probes). Recombinant SHP-1 protein (25 ng) was incubated with either SC-43 or SC-40 at the indicated dose for 30 minutes and then analyzed by SHP-1 phosphatase activity.

HCC cells [4] = test: cells; conditions: 72 h
Description: Points, mean; bars, SD (n=6).
Points, mean; bars, SD ([…]). […] The N-SH2 domain is in orange, the C-SH2 domain is in marine, the PTP domain is in hot pink, and the linkers between them are in gray. […] ELISA, enzyme-linked immunosorbent assay.

HCC cells [5] = test: Apoptosis analysis by flow cytometry (sub-G1); assay type: cell-based; conditions: for apoptosis (sub-G1): HCC cells, 24 h
Protocol: Apoptotic cells were measured by flow cytometry (sub-G1). After treatment with various compounds, cells were trypsinized, collected by centrifugation and resuspended in PBS. After centrifugation, the cells were washed in PBS and resuspended in […] (PI) staining solution. Specimens were incubated in the dark for 30 min at 37° C. and then analyzed with an EPICS Profile II flow cytometer (Coulter Corp., Hialeah, Fla.). All experiments were performed in triplicate
Collected cells were fixed in 75% Ethanol and stained with 20 ug/ml Propidium Iodide (PI). Sub-G1 analysis was performed by flow-cytometry. […] Points, mean; bars, SD (n=6).

[6] = tested on: PLC5/luc2 orthotopic tumors; test: HCC orthotopic model with PLC5/luc2 cells; assay type: in vivo, mice; conditions: 10 mg/kg/day orally
Protocol: All experimental procedures using these mice were done in accordance with protocols approved by the Institutional Laboratory Animal Care and Use Committee of National Taiwan University. Each mouse was inoculated within liver […] with 1×10^4 PLC5/luc cells suspended in 0.1 mL of serum-free medium containing 50% Matrigel (BD Biosciences). […] Tumor growth was monitored by non-invasive in vivo imaging system (IVIS) image system twice weekly.
as §1

Raf-1 = target: T2, Raf-1 (Homo sapiens, UniProt P04049); test: Raf-1 kinase activity in lysates of treated cells; assay type: cell-based
T2 construct: Raf-1 immunoprecipitated from PLC5 cell extracts was incubated with MEK recombinant protein; endogenous in cells; host or cells: PLC5
Description: (§2) The RediPlate 96 EnzChek® Tyrosine Phosphatase Assay Kit (R-22067) was used for SHP-1 activity assay (Molecular Probes, Carlsbad, Calif.). The Raf-1 kinase cascade assay kit (Upstate-Millipore, Billerica, Mass.) was used to examine the Raf-1 kinase activity. The JAK2 kinase activity kit was purchased from Reaction Biology Corp. (Malvern, Pa.).

PLC5 cells = test: MTT assay for cell growth inhibition in PLC5 cells; assay type: cell-based
Protocol: These compounds were analyzed by MTT assay for cell growth inhibition in the PLC5 cells.
Next, we changed the pyridine to a quinoline ring and amide linker to generate compounds 12-25. These compounds were also analyzed by MTT assay for cell growth inhibition in the PLC5 cells.

Huh-7 tumors = conditions: for SHP-1 activity in Huh-7 tumors: tumor extract
Protocol: Male NCr athymic nude mice (5-7 weeks of age) were obtained from the National Laboratory Animal Center (Taipei, Taiwan). All experimental procedures using these mice were performed in accordance with protocols approved by National Taiwan University. […] Controls received vehicle (Chen K F et al. Cancer Res. 2008; 68:6698-6707).

Huh-7 xenograft tumor = test: Huh-7 xenograft with SC-59 or sorafenib and radiation; assay type: in vivo, mice; conditions: 10 mg/kg p.o. once daily plus 5 Gy radiation for 4 days
Protocol: (A) The effects of SC-59 and radiation on tumor growth. Each mouse was inoculated subcutaneously in the right leg with […] Huh-7 cells suspended in Matrigel. When the tumor reached a volume of 400-600 mm3, mice received vehicle, 5 Gy radiation (one fraction per day) for 4 days, or 10 mg/kg SC-59 p.o. once daily, or a combination for the duration of the study. The data points indicate the mean values (n=6) and the bars indicate the standard error. There were significant differences between the combined treatment group and the vehicle control group (*, P<0.05, **, P<0.01). (B) Left, the expression of P-STAT3 in the Huh-7 tumors was analyzed by western blot. Right, quantified data for p-STAT3 to STAT3. (C) The activity of SHP-1 in Huh-7 tumors. Values are means±SD, *, P<0.05. (D) Body weight of mice after SC-59 and RT treatment. […] The data points indicate the mean values (n=6) and the bars indicate the standard error. […] (H) Body weight of mice treated with vehicle, RT, sorafenib, and combination.
To further elucidate the molecular events responsible for this synergistic effect, we examined the expression level of p-STAT3 in the tumor extract.

JAK2 = target: T3, JAK2 (Homo sapiens, UniProt O60674); test: JAK2 kinase activity; assay type: cell-based; conditions: PLC5 cells, 10 μM, 24 h
T3 construct: endogenous in cells; host or cells: PLC5
Description: as §2

VEGFR1 = target: T4, VEGFR1 (Homo sapiens, UniProt P17948); test: VEGFR1 activity in HUVEC cells; assay type: cell-based; conditions: 24 h
T4 construct: we tested the effect of SC-49 on the activity of VEGFR1 in HUVEC cells; endogenous in cells; host or cells: HUVEC
Description: To further investigate the effect of SC-49 on angiogenesis, we tested the effect of SC-49 on the activity of VEGFR1 in HUVEC cells.

STAT3 = STAT3 luciferase reporter assay; assay type: cell-based; conditions: 10 μM, 24 h
Protocol: Cells were seeded in 96-well plate and pre-treated with IL-6 at the dose […] for 30 min. The STAT3 reporter kit was purchased from SABiosciences (Frederick, Md.).
STAT3 reporter assay: PLC5 cells were seeded in a 96-well plate. Cells were pretransfected with STAT3 reporter construct for 24 h and treated with derivatives for another 24 h. The STAT3 Reporter Kit was purchased from SABiosciences.

T1 sequence (P29350 whole entry): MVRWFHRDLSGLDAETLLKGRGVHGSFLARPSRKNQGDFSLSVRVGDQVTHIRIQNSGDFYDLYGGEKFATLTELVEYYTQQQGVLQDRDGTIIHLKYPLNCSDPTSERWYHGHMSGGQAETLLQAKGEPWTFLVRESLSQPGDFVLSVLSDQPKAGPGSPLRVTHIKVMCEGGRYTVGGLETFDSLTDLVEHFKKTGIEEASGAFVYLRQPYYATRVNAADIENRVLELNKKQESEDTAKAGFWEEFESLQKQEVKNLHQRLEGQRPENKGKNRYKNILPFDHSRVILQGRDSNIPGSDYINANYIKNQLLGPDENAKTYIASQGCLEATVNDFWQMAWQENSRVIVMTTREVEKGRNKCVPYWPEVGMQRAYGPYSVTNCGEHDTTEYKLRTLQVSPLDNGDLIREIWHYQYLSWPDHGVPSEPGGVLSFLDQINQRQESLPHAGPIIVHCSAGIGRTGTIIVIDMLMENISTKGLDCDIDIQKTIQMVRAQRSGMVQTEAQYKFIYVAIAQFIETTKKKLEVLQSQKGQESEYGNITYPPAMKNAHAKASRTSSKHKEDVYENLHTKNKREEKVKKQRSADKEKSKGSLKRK
T2 sequence (P04049 whole entry): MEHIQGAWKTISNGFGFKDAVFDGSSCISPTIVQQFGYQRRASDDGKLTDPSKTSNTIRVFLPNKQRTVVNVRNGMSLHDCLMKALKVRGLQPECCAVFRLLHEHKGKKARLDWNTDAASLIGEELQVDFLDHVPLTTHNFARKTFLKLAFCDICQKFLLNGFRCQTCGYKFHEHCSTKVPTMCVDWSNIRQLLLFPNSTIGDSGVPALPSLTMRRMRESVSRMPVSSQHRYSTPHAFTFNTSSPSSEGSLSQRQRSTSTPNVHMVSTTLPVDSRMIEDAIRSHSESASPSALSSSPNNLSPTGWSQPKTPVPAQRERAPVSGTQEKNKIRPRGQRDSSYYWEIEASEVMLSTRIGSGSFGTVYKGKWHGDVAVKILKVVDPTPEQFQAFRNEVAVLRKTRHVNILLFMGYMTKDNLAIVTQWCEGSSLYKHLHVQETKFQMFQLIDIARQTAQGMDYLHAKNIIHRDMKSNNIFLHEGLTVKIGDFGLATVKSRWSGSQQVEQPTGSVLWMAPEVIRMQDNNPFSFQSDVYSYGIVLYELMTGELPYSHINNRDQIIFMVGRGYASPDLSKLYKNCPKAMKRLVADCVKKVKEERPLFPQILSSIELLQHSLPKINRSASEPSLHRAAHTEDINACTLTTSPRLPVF
T3 sequence (O60674 whole entry): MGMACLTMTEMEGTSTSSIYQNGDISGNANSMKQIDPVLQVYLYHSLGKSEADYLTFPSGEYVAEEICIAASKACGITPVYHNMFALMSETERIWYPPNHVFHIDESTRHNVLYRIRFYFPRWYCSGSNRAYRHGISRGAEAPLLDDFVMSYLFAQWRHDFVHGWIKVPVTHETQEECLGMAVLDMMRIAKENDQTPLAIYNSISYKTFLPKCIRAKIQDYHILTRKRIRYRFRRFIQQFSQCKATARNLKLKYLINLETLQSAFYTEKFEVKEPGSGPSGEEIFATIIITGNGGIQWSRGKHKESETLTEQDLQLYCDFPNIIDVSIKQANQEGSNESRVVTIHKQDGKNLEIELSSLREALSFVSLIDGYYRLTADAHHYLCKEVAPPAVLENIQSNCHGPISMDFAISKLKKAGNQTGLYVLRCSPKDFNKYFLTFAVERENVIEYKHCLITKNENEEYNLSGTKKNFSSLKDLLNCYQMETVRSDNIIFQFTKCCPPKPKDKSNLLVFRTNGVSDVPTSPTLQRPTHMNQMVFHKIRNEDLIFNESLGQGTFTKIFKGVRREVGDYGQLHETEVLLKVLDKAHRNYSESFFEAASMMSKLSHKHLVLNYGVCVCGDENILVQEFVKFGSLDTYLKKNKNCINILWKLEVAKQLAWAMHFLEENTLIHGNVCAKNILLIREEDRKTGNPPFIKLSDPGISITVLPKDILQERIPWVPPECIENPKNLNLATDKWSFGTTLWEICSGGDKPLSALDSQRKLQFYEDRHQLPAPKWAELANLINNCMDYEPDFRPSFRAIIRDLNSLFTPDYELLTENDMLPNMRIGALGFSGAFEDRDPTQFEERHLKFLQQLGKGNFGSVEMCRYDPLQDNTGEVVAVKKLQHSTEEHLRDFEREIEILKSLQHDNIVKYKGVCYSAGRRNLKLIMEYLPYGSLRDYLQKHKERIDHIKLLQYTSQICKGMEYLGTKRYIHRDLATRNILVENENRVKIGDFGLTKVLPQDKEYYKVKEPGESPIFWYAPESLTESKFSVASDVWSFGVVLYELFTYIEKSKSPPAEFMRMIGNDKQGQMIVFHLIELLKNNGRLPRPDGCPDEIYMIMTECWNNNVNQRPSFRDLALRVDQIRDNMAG
T4 sequence (P17948 27-1338): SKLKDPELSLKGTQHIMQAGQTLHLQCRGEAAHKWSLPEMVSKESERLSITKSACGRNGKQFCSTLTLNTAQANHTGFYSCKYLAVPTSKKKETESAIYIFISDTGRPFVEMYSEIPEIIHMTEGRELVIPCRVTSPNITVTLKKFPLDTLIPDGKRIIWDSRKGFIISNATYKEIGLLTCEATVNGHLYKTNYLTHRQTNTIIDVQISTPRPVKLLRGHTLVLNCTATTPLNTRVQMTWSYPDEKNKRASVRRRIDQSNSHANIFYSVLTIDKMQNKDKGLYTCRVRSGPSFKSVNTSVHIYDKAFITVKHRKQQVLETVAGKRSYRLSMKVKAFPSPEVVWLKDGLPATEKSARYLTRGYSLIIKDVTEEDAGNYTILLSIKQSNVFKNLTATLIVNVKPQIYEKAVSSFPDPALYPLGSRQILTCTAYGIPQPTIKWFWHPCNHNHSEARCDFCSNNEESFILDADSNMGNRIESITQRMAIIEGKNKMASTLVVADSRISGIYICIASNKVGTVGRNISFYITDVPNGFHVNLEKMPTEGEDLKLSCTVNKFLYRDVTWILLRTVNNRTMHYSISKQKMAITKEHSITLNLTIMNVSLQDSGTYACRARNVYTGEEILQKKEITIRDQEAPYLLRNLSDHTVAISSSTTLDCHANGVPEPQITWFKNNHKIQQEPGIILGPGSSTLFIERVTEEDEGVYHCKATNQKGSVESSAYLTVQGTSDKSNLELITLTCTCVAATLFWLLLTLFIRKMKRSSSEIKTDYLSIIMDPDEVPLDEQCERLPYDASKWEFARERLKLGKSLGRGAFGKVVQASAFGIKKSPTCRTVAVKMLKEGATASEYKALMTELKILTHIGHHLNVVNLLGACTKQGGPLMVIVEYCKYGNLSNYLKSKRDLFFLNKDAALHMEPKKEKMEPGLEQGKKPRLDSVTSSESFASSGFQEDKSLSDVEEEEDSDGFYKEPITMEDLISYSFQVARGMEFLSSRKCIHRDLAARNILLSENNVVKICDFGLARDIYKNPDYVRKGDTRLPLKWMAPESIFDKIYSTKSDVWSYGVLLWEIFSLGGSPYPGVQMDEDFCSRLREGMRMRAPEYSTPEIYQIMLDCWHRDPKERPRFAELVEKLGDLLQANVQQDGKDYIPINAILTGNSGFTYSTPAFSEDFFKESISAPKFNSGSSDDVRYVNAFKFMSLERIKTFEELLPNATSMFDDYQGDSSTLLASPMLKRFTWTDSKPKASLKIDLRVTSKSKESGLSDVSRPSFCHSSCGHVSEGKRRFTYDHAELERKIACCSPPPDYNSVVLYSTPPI

Nc1cc(Oc2cccc(NS(=O)(=O)c3cccc(C(F)(F)F)c3)c2)ccc1[N+](=O)[O-] [SC-40, N-(3-(trifluoromethyl)benzene-sulfonyl)-3-(3-amino-4-nitrophenoxy)benzenamine]
p-STAT3 and SHP-1 activity in PLC5 tumor lysate (PLC5 tumors; 10 mg/kg/day orally): Down-regulation of p-STAT3 and elevation of SHP-1 activity | body weight of the animals (PLC5 tumors; PLC5 xenograft, 10 or 20 mg/kg orally once daily): do not affect body weight of the animals | average tumor size versus control mice at the end of treatment (PLC5 tumors; 10 mg/kg/day orally): less than half that of control mice | antitumor effect on PLC5 tumors (PLC5 tumors; SC-40 tosylate 10 or 20 mg/kg orally once daily): has significant anti-tumor effect on PLC5 tumors | p-STAT3 / STAT3 activity (phospho-STAT3 ELISA and luciferase reporter) (phospho-STAT3 (Tyr705)): induce strong inhibition of p-STAT3 activity; also recorded: showed more potent inhibition of the p-STAT3-related signaling pathway | phosphatase activity of SHP-1 in vitro (SHP-1 [1]; SHP-1-containing PLC5 extract, 10 or 100 nmol/L, 30 min, 4° C.): increase phosphatase activity of SHP-1 in vitro | p-STAT3 and STAT3-related proteins (Western blot) [2]: down-regulates phospho-STAT3-related signaling pathway in HCC | phosphatase activity of recombinant SHP-1 (SHP-1 [3]): increase phosphatase activity of SHP-1 in vitro | viability of HCC cells / cytotoxicity (HCC cells [4]): showed lower 50% inhibitory concentration, compared to sorafenib | apoptosis (sub-G1) (HCC cells [5]): show significant anti-cancer effects in HCC cells | apoptosis in sorafenib-resistant cells (HCC cells [5]; sorafenib-resistant HCC cells (SR1)): resulted in significant apoptosis in sorafenib-resistant cells at submicromolar concentrations

Cc1ccc(NC(=O)Nc2ccc(C)c(Oc3ccc(C#N)cc3)c2)cc1Oc1ccc(C#N)cc1 [SC-60, 1,3-bis(3-(4-cyanophenoxy)-4-methylphenyl)urea]
average tumor size versus control mice at the end of treatment (PLC5 tumors; 10 mg/kg/day orally): less than half of those of control mice | p-STAT3 / STAT3 activity (phospho-STAT3 ELISA and luciferase reporter) (phospho-STAT3 (Tyr705)): showed significant inhibition of STAT3 activity | p-STAT3 and STAT3-related proteins (Western blot) [2]: downregulated phospho-STAT3 (p-STAT3) at tyrosine 705 in a dose-dependent manner | anti-HCC effect and survival in orthotopic model [6]: displayed significant survival benefits compared with mice treated with vehicle or sorafenib

CNC(=O)c1cc(Oc2ccc(NC(=O)Nc3ccc(Cl)c(C(F)(F)F)c3)cc2)ccn1 [Sorafenib, reference compound]
activity of p-STAT3 by STAT3 ELISA (phospho-STAT3 (Tyr705); Sk-Hep1 cells pre-treated with IL-6, 24 h): decreased the activity of p-STAT3 significantly | activity of SHP-1 in SHP-1 immunoprecipitates incubated with drug (SHP-1 [1]; PLC5 lysates, incubated 6 hours): increase the activity of SHP-1 | p-STAT3 and STAT3-related proteins (Western blot) [2]: down-regulated p-STAT3 at Y705 residue and suppressed Mc1-1 and cyclin D1 | inhibition at 5 µM (Raf-1; PLC5, read-out: inhibition of Raf-1 kinase activity of the untreated cells): 50% | reduction in Raf-1 kinase activity (Raf-1; Raf-1 immunoprecipitated from PLC5 or Hep3B cell extracts, 10 μM, 24 h): 20-40% | viability of HCC cells / cytotoxicity (HCC cells [4]; HCC cell lines, MTT): decreased the viability of various HCC cells | IC50 (PLC5 cells): 8.3 µM | Huh-7 tumor size / growth versus control (Huh-7 tumors; 10 mg/kg/day orally): less than half that of control mice | body weight or toxicity (Huh-7 tumors; mouse, in vivo, po, 10 mg/kg/day): no apparent differences in body weight or toxicity | SHP-1 activity in Huh-7 tumors (Huh-7 tumors): showed significant induction of SHP-1 activity in vivo | SHP-1 activity in Huh-7 tumors (Huh-7 tumors; listed as sorafenib): enhanced the activity of SHP-1 in Huh-7 tumours | tumor growth with radiotherapy combination (Huh-7 xenograft tumor): did not display a better synergistic effect when used in combination with radiotherapy | apoptosis (sub-G1) (HCC cells [5]): showed a significant increase in sub-G1 phase population | kinase activity of JAK2 (JAK2): neither sorafenib nor SC-1 altered the kinase activity of JAK2 | activity of VEGFR1 (VEGFR1): significantly inhibited the activity of VEGFR1 in HUVEC cells | transcription activity of STAT3 (Luc reporter) (STAT3): transcription activity of STAT3 was significantly decreased
